From patent US12227653B2, “Fluorinated coumarins” (3M INNOVATIVE PROPERTIES COMPANY, priority 2019, dated 2025) come the findings set out here.

Common to all, as to type: physicochemical
Data set [1] can be described thus: Solubility Test Method in fluorinated fluids. To be noted: for solubility: organic solvent or mixture, thermodynamic from solid. The protocol:
For compounds 4 and 5, a known amount of material was weighed into a scintillation vial and 1 mL of each solvent was volumetrically added followed by sonication for dissolution. For samples that completely dissolved, the formed solution was then added to additional aliquots of sample in an attempt to generate a saturated solution. […] In the case of compound 8, approximately 100 mg was suspended in 10 mL of each solvent and shaken for 1-2 h, after which the solution was filtered via syringe filter into a tared vial and the solution mass measured. The solvent was evaporated in vacuo and the mass of the remaining residue was recorded.
These samples were repeated using less mass of Molecule 5. […] It is believed that some molecules may have a tendency to gel at high concentrations (e.g., the molecule comprises more than 50 wt % of the composition).

Another data set can be described thus: UV/Vis Test Method. The settings on record: diluted into HFE 7200, 1 cm quartz cuvette. The protocol:
Unless otherwise mentioned, the sample was diluted into HFE 7200 and spectra were collected on an Ultraviolet-Visible (UV/Vis) spectrometer (available under the trade designation “CARY 8454” from Agilent Technologies, Inc, Santa Clara, CA) using 1 cm quartz cuvettes.

The nature of a further data set: Fluorescence Test Method. The settings on record: in CHCl3 instead of HFE 7200. The procedure:
Unless otherwise mentioned, the sample was diluted into HFE 7200 and spectra were collected on a fluorimeter (available under the trade designation “FLUOROLOG 3-21 HR” from Jobin-Yvon Horiba, Inc., Edison, NJ) in a 1 cm fluorescence cuvette under the following experimental parameters: • Orientation: 10 degree (front face) • EX Slit Width: 1.0 nm • EM Slit Width: 1.0 nm • EX Data Interval: 5 nm • EM Data Interval: 5 nm • EX Wavelength range: 300 nm to 500 nm • EM Wavelength range: 400 nm to 650 nm

≈ marks a conversion by molar mass, not a printed value.

On to `Cc1cc(=O)oc2cc(OCCCCCN(C)S(=O)(=O)C(F)(F)C(F)(F)C(F)(F)C(F)(F)F)ccc12` [Molecule 8], for which, in data set [1] (solvent HFE 7200), the solubility was found to be 1570 µg/mL (≈ 2.82 mM) and the “wt % of solution” value amounted to 0.1 wt %. Moreover, in data set [1] (solvent PF-5052), the solubility was 4070 µg/mL (≈ 7.3 mM) and the “wt % of solution” value came out at 0.2 wt %. For the same compound, in data set [1] (solvent FC-70), the “Solubility (g/mL)” value is “Insoluble” and the “wt % of solution” value was 0 wt %. For the same compound, in “UV/Vis Test Method”, the “λmax from the UV/Vis test” value is reported as 320 nm. In “Fluorescence Test Method”, the “fluorescence emission λmax” value was 380 nm and the “fluorescence excitation λ” value was determined as 320 nm.

By solubility is commonly meant how much of the substance goes into solution per volume.
